According to ChEMBL document CHEMBL1140893, “Cancer preventive agents. Part 8: Chemopreventive effects of stevioside and related compounds” (Bioorg Med Chem, 2009):

Assays:
[1] = Cytotoxicity against human Raji cells assessed as cell viability at 100 mol ratio by trypan blue staining; type: cell-based; details: read-out: Activity
[2] = Cytotoxicity against human Raji cells assessed as cell viability at 500 mol ratio by trypan blue staining; type: cell-based; details: read-out: Activity
Mus musculus [3] = species on record: Mus musculus; test: Reduction in peroxynitrite-induced/TPA-promoted number of skin papillomas in Sencar mouse after 20 weeks; type: functional; design: scale not given: the % may be the effect or the level left
Raji [4] = test: Inhibition of TPA-induced EBV-early antigen activation in human Raji cells at 500 mol ratio after 48hrs by indirect immunofluorescence technique relative to control; type: cell-based; design: scale not given: the % may be the effect or the level left; details: human gammaherpesvirus 4
Raji [5] = test: Inhibition of TPA-induced EBV-early antigen activation in human Raji cells at 1000 mol ratio after 48hrs by indirect immunofluorescence technique relative to control; type: cell-based; design: scale not given: the % may be the effect or the level left; details: human gammaherpesvirus 4
[6] = Cytotoxicity against human Raji cells assessed as cell viability at 1000 mol ratio by trypan blue staining; type: cell-based; details: read-out: Activity
[7] = Cytotoxicity against human Raji cells assessed as cell viability at 10 mol ratio by trypan blue staining; type: cell-based; details: read-out: Activity
[8] = Inhibition of TPA-induced EBV-early antigen activation in human Raji cells after 48hrs by indirect immunofluorescence technique; type: cell-based, human gammaherpesvirus 4
Raji [9] = test: Inhibition of TPA-induced EBV-early antigen activation in human Raji cells at 10 mol ratio after 48hrs by indirect immunofluorescence technique relative to control; type: cell-based; design: scale not given: the % may be the effect or the level left; details: human gammaherpesvirus 4
Raji [10] = test: Inhibition of TPA-induced EBV-early antigen activation in human Raji cells at 100 mol ratio after 48hrs by indirect immunofluorescence technique relative to control; type: cell-based; design: scale not given: the % may be the effect or the level left; details: human gammaherpesvirus 4
Mus musculus [11] = test: Inhibition of DMBA-induced/TPA-promoted carcinogenesis in mouse assessed as number of skin papillomas per mouse at 85 nmol administered 1 hr before TPA treatment measured after 20 weeks; type: functional
Mus musculus [12] = test: Inhibition of DMBA-induced/TPA-promoted carcinogenesis in mouse assessed as reduction in skin papillomas bearing mouse at 85 nmol administered 1 hr before TPA treatment measured after 20 weeks; type: functional, organism-based; design: Activity: scale not given: the % may be the effect or the level left
Mus musculus [13] = test: Inhibition of DMBA-induced/TPA-promoted carcinogenesis in mouse assessed as number of skin papillomas per mouse at 85 nmol administered 1 hr before TPA treatment measured after 15 weeks; type: functional
Mus musculus [14] = test: Inhibition of DMBA-induced/TPA-promoted carcinogenesis in mouse assessed as reduction in skin papillomas bearing mouse at 85 nmol administered 1 hr before TPA treatment measured after 15 weeks; type: functional; design: scale not given: the % may be the effect or the level left
Mus musculus [15] = test: Inhibition of DMBA-induced/TPA-promoted carcinogenesis in mouse assessed as number of skin papillomas per mouse at 85 nmol administered 1 hr before TPA treatment measured after 10 weeks; type: functional
Mus musculus [16] = test: Inhibition of DMBA-induced/TPA-promoted carcinogenesis in mouse assessed as reduction in skin papillomas bearing mouse at 85 nmol administered 1 hr before TPA treatment measured after 10 weeks; type: functional; design: scale not given: the % may be the effect or the level left
Mus musculus [17] = test: Inhibition of peroxynitrite-induced/TPA-promoted carcinogenesis in Sencar mouse assessed as reduction in skin papillomas bearing mouse at 85 nmol administered 1 hr before TPA treatment measured after 11 weeks; type: functional; design: scale not given: the % may be the effect or the level left
Mus musculus [18] = test: Inhibition of peroxynitrite-induced/TPA-promoted carcinogenesis in Sencar mouse assessed as number of skin papillomas per mouse at 85 nmol administered 1 hr before TPA treatment measured after 10 weeks; type: functional
Mus musculus [19] = test: Inhibition of peroxynitrite-induced/TPA-promoted carcinogenesis in Sencar mouse assessed as number of skin papillomas per mouse at 85 nmol administered 1 hr before TPA treatment measured after 15 weeks; type: functional
Mus musculus [20] = test: Inhibition of peroxynitrite-induced/TPA-promoted carcinogenesis in Sencar mouse assessed as reduction in skin papillomas bearing mouse at 85 nmol administered 1 hr before TPA treatment measured after 20 weeks; type: functional; design: scale not given: the % may be the effect or the level left
Mus musculus [21] = test: Inhibition of peroxynitrite-induced/TPA-promoted carcinogenesis in Sencar mouse assessed as reduction in skin papillomas bearing mouse at 85 nmol administered 1 hr before TPA treatment measured after 15 weeks; type: functional; design: scale not given: the % may be the effect or the level left
Mus musculus [22] = test: Inhibition of peroxynitrite-induced/TPA-promoted carcinogenesis in Sencar mouse assessed as number of skin papillomas per mouse at 85 nmol administered 1 hr before TPA treatment measured after 20 weeks; type: functional
Mus musculus [23] = test: Inhibition of peroxynitrite-induced/TPA-promoted carcinogenesis in Sencar mouse assessed as reduction in skin papillomas bearing mouse at 85 nmol administered 1 hr before TPA treatment measured after 10 weeks; type: functional; design: scale not given: the % may be the effect or the level left
Mus musculus [24] = test: Inhibition of DMBA-induced/TPA-promoted carcinogenesis in mouse assessed as reduction in skin papillomas bearing mouse at 85 nmol administered 1 hr before TPA treatment measured after 9 weeks; type: functional; design: scale not given: the % may be the effect or the level left
Mus musculus [25] = test: Inhibition of peroxynitrite-induced/TPA-promoted carcinogenesis in Sencar mouse assessed as number of skin papillomas per mouse at 85 nmol administered 1 hr before TPA treatment measured after 11 weeks; type: functional

Row | SMILES | viability at 100 mol ratio [1] [%] | viability at 500 mol ratio [2] [%] | Activity (Mus musculus [3]) [%] | Activity (Raji [4]) [%] | Activity (Raji [5]) [%] | viability at 1000 mol ratio [6] [%] | viability at 10 mol ratio [7] [%] | IC50 [8] [mol ratio/32 pmol TPA] | Activity (Raji [9]) [%] | Activity (Raji [10]) [%] | Activity (Mus musculus [11]) | Activity (Mus musculus [12]) [%] | Activity (Mus musculus [13]) | Activity (Mus musculus [14]) [%] | Activity (Mus musculus [15]) | Activity (Mus musculus [16]) [%] | Activity (Mus musculus [19]) | Activity (Mus musculus [20]) [%] | Activity (Mus musculus [21]) [%] | Activity (Mus musculus [22]) | other results
1 | COc1cc(/C=C/C(=O)CC(=O)/C=C/c2ccc(O)c(OC)c2)ccc1O [CURCUMIN] | > 80 | > 80 | 45.1 | 22.8 | 0 | 60 | > 80 | 331 | 100 | 81.7 |  |  |  |  |  |  |  |  |  |  | 
2 | C=C1C[C@@]23CC[C@H]4[C@@](C)(CCC[C@@]4(C)C(=O)O[C@@H]4O[C@H](CO)[C@@H](O)[C@H](O)[C@H]4O)[C@@H]2CC[C@]1(O[C@@H]1O[C@H](C)[C@@H](O)[C@H](O)[C@@H]1O[C@@H]1O[C@H](CO)[C@@H](O)[C@H](O)[C@H]1O)C3 [DULCOSIDE A] |  |  |  | 40.9 | 6.7 |  |  |  | 92.5 | 73 |  |  |  |  |  |  |  |  |  |  | 
3 | CC1(C)[C@@H](O[C@H]2O[C@H](C(=O)O)[C@@H](O)[C@H](O)[C@H]2O[C@@H]2O[C@H](C(=O)O)[C@@H](O)[C@H](O)[C@H]2O)CC[C@]2(C)[C@H]3C(=O)C=C4[C@@H]5C[C@@](C)(C(=O)O)CC[C@]5(C)CC[C@@]4(C)[C@]3(C)CC[C@@H]12 [GLYCYRRHIZIN] | > 80 | > 80 |  | 36.9 | 12.5 | 60 | > 80 | 381 | 100 | 69.2 | 6.2 | 94 | 4.6 | 60 | 2.8 | 50 |  |  |  |  | 
4 | C[C@@]12CC[C@@H]3[C@@](CC[C@H]4[C@@]3(C)CCC[C@@]4(C)C(=O)O)(CC1=O)C2 [ISOSTEVIOL] | > 80 | > 80 | 46.2 | 34.2 | 1.9 |  | > 80 | 321 | 90.6 | 73 | 5 |  | 3.6 | 60 | 1.8 | 20 | 2.7 | 73 | 53 | 4.3 | Activity % (Mus musculus [12]): 87%; Activity (Mus musculus [17]): 33%; Activity (Mus musculus [18]): 1.6
5 | C=C1C[C@@]23CC[C@H]4[C@@](C)(CCC[C@@]4(C)C(=O)O[C@@H]4O[C@H](CO)[C@@H](O)[C@H](O)[C@H]4O)[C@@H]2CC[C@]1(O[C@@H]1O[C@H](CO)[C@@H](O)[C@H](O[C@@H]2O[C@H](CO)[C@@H](O)[C@H](O)[C@H]2O)[C@H]1O[C@@H]1O[C@H](CO)[C@@H](O)[C@H](O)[C@H]1O)C3 [REBAUDIOSIDE A] | > 80 | > 80 |  |  |  | 60 | > 80 |  |  |  |  |  |  |  |  |  |  |  |  |  | 
6 | C=C1C[C@@]23CC[C@H]4[C@@](C)(CCC[C@@]4(C)C(=O)O[C@@H]4O[C@H](CO)[C@@H](O)[C@H](O)[C@H]4O)[C@@H]2CC[C@]1(O[C@@H]1O[C@H](CO)[C@@H](O)[C@H](O[C@@H]2O[C@H](CO)[C@@H](O)[C@H](O)[C@H]2O)[C@H]1O[C@@H]1O[C@@H](C)[C@H](O)[C@@H](O)[C@H]1O)C3 [REBAUDIOSIDE C] | > 80 | > 80 |  |  |  | 60 | > 80 |  |  |  |  |  |  |  |  |  |  |  |  |  | 
7 | C=C1C[C@@]23CC[C@H]4[C@@](C)(CCC[C@@]4(C)C(=O)O[C@@H]4O[C@H](CO)[C@@H](O)[C@H](O)[C@H]4O)[C@@H]2CC[C@]1(O[C@@H]1O[C@H](CO)[C@@H](O)[C@H](O)[C@H]1O)C3 [RUBUSOSIDE] | > 80 | > 80 |  | 44.2 | 12.5 | 60 | > 80 | 450 | 94.2 | 76.8 |  |  |  |  |  |  |  |  |  |  | 
8 | C=C1C[C@@]23CC[C@H]4[C@@](C)(CCC[C@@]4(C)C(=O)O)[C@@H]2CC[C@]1(O)C3 [STEVIOL] | > 80 | > 80 | 44.4 | 35.6 | 2.1 | 60 | > 80 | 340 | 91.2 | 74.1 | 5.4 | 87 | 3.7 | 60 | 1.8 | 27 | 3.5 | 93 | 67 | 4.5 | Activity (Mus musculus [23]): 27%; Activity (Mus musculus [18]): 2.3
9 | C=C1C[C@@]23CC[C@H]4[C@@](C)(CCC[C@@]4(C)C(=O)O[C@@H]4O[C@H](CO)[C@@H](O)[C@H](O)[C@H]4O)[C@@H]2CC[C@]1(O[C@@H]1O[C@H](CO)[C@@H](O)[C@H](O)[C@H]1O[C@@H]1O[C@H](CO)[C@@H](O)[C@H](O)[C@H]1O)C3 [STEVIOSIDE] | > 80 | > 80 | 45 | 36.9 | 3.2 |  | > 80 | 360 | 89.3 | 67.4 |  | 93 |  | 53 |  |  | 3 | 87 | 53 | 4.4 | Activity (Mus musculus [24]): 20%; Activity (Mus musculus [17]): 40%; Activity (Mus musculus [25]): 2
